Reference: ChEMBL document CHEMBL1201862, “PubChem BioAssay data set” (2004)
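Briefly, cells in 96-well plates were exposed to five compound concentrations for 48 h, and endpoints were estimated by linear interpolation. Abbreviation: GI50, concentration required for 50% inhibition of growth.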 The source made the active and inactive calls. Cut-off read from the data, not from the text of the source: active = GI50 up to about 1.1 µM and inactive = higher.

What was measured:
Assay in all cases: DTP human tumour cell line panel, 48 h
786-0 = system: 786-0
CAKI-1 = system: CAKI-1
UACC-62 = system: UACC-62
SNB-19 = system: SNB-19
RXF 393 = system: RXF 393
CCRF-CEM = system: CCRF-CEM
SF-268 = system: SF-268
NCI-H23 = system: NCI-H23
SK-MEL-28 = system: SK-MEL-28
SN12C = system: SN12C
TK-10 = system: TK-10
SK-OV-3 = system: SK-OV-3
SK-MEL-5 = system: SK-MEL-5
HCT-116 = system: HCT-116
MOLT-4 = system: MOLT-4
SR = system: SR
UO-31 = system: UO-31
RPMI-8226 = system: RPMI-8226

Measured: GI50

COC(=O)CC1CC2(C(=O)OC)c3[nH]c4ccccc4c3CCN2C1=O (configuration not stated)
inactive: 786-0 > 100 µM | CAKI-1 > 100 µM | UACC-62 > 100 µM | SNB-19 > 100 µM | RXF 393 > 100 µM | CCRF-CEM > 100 µM | SF-268 > 100 µM | NCI-H23 > 100 µM | SK-MEL-28 > 100 µM | SN12C > 100 µM | TK-10 > 100 µM | SK-OV-3 > 100 µM | SK-MEL-5 > 100 µM | HCT-116 > 100 µM | MOLT-4 > 100 µM | SR > 100 µM | UO-31 > 100 µM

O=C1OC(=O)c2c1nc1ccccc1c2-c1ccccc1
inactive: 786-0 > 100 µM | CAKI-1 > 100 µM | UACC-62 > 100 µM | SNB-19 > 100 µM | RXF 393 > 100 µM | CCRF-CEM > 100 µM | SF-268 > 100 µM | RPMI-8226 > 100 µM | SN12C > 100 µM | TK-10 > 100 µM | SK-OV-3 > 100 µM | SK-MEL-5 > 100 µM | HCT-116 > 100 µM | MOLT-4 > 100 µM | SR > 100 µM | UO-31 > 100 µM

O=C(O)C1=C(O)C(C(=O)O)C23CCCCCCCCCCC12C(C(=O)O)C(O)=C3C(=O)O (configuration not stated)
inactive: 786-0 > 100 µM | SNB-19 > 100 µM | RXF 393 > 100 µM | CCRF-CEM > 100 µM | SF-268 > 100 µM | NCI-H23 > 100 µM | RPMI-8226 > 100 µM | SK-MEL-28 > 100 µM | SN12C > 100 µM | TK-10 > 100 µM | SK-OV-3 > 100 µM | SK-MEL-5 > 100 µM | MOLT-4 > 100 µM | SR > 100 µM | UO-31 > 100 µM

Cc1cc(Br)cc(C)c1NC(=O)C(=O)CC(=O)c1sc(-n2nc(-c3ccccc3)cc2-c2ccccc2)nc1C
inactive: 786-0 > 100 µM | CAKI-1 > 100 µM | UACC-62 > 100 µM | SNB-19 > 100 µM | RXF 393 > 100 µM | CCRF-CEM > 100 µM | SF-268 > 100 µM | NCI-H23 > 100 µM | RPMI-8226 > 100 µM | SK-MEL-28 > 100 µM | SN12C > 100 µM | TK-10 > 100 µM | SK-OV-3 > 100 µM | HCT-116 > 100 µM | MOLT-4 > 100 µM | SR > 100 µM | UO-31 > 100 µM

CCn1c2ccccc2c2ccc3c(c21)C(=O)c1ccccc1C3=O
inactive: 786-0 > 100 µM | UACC-62 > 100 µM | SNB-19 > 100 µM | RXF 393 84.1 µM | CCRF-CEM 74.3 µM | SF-268 > 100 µM | NCI-H23 > 100 µM | RPMI-8226 > 100 µM | SK-MEL-28 > 100 µM | SN12C > 100 µM | SK-OV-3 > 100 µM | SK-MEL-5 76.6 µM | HCT-116 > 100 µM | MOLT-4 61.5 µM | SR 10.4 µM | UO-31 > 100 µM

Cc1cccc(NC(=O)C(=O)C(C2OC(=O)c3ccccc32)[N+](=O)[O-])c1C (configuration not stated)
inactive: 786-0 10.2 µM | CAKI-1 7.43 µM | UACC-62 10.9 µM | SNB-19 16.2 µM | RXF 393 6.87 µM | CCRF-CEM 3.52 µM | SF-268 7.52 µM | NCI-H23 5.46 µM | SK-MEL-28 12.6 µM | SN12C 6.34 µM | TK-10 18 µM | SK-OV-3 13.6 µM | SK-MEL-5 6.53 µM | HCT-116 5.96 µM | MOLT-4 2.99 µM | SR 3.13 µM | UO-31 9.53 µM

CC(C)c1cccc(C(C)C)c1NC(=O)C(=O)C(C(=O)c1ccc2ccccc2c1)C1OC(=O)c2ccccc21 (configuration not stated)
inactive: 786-0 > 100 µM | CAKI-1 52.4 µM | UACC-62 > 100 µM | SNB-19 > 100 µM | RXF 393 11 µM | CCRF-CEM > 100 µM | SF-268 > 100 µM | NCI-H23 > 100 µM | RPMI-8226 > 100 µM | SK-MEL-28 > 100 µM | SN12C > 100 µM | SK-OV-3 > 100 µM | SK-MEL-5 > 100 µM | HCT-116 > 100 µM | MOLT-4 > 100 µM | SR > 100 µM | UO-31 47.8 µM

Cc1cccc(C(C)(C)C)c1NC(=O)CCl
inactive: 786-0 > 100 µM | CAKI-1 > 100 µM | UACC-62 > 100 µM | SNB-19 > 100 µM | RXF 393 > 100 µM | CCRF-CEM > 100 µM | SF-268 > 100 µM | NCI-H23 > 100 µM | SK-MEL-28 > 100 µM | SN12C > 100 µM | TK-10 > 100 µM | SK-OV-3 > 100 µM | SK-MEL-5 > 100 µM | HCT-116 > 100 µM | MOLT-4 > 100 µM | SR > 100 µM | UO-31 > 100 µM
